Laboratory results taken from PMC9466612, “Enaminone-based carboxylic acids as novel non-classical carbonic anhydrases inhibitors: design, synthesis and in vitro biological assessment” (Journal of Enzyme Inhibition and Medicinal Chemistry, 2022).
Like-named read-outs stand apart in the source and are kept apart here.

Experiments:
Test in all cases: stopped-flow CO2 hydrase assay
Format in all cases: biochemical
[1] = target: T1, hCA II (Homo sapiens, UniProt P00918)
T1 construct: gene CA2
Source text: stopped-flow CO2 hydrase assay on hCA II

[2] = target: T2, hCA XII (Homo sapiens, UniProt O43570)
T2 construct: gene CA12; trans-membrane isoform
T2 sequence (O43570 30-289 limits assumed): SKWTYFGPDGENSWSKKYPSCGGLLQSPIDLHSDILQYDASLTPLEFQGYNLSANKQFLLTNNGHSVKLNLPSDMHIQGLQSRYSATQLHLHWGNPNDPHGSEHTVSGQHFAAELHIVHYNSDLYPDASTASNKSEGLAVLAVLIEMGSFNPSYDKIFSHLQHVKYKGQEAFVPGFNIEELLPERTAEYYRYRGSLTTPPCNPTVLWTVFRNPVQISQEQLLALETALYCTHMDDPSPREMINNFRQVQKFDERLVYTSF
Source text: stopped-flow CO2 hydrase assay on hCA XII

[3] = target: T3, hCA I (Homo sapiens, UniProt P00915)
T3 construct: gene CA1; cytosolic isoform
T3 sequence (P00915 2-261): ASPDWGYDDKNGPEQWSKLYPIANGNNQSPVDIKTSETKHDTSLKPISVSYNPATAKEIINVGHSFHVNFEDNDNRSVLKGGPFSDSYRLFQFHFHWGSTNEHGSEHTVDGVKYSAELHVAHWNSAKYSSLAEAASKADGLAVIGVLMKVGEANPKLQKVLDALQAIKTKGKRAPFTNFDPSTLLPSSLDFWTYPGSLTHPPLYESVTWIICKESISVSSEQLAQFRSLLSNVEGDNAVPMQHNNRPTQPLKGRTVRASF
Source text: stopped-flow CO2 hydrase assay on hCA I

[4] = target: T4, hCA IX (Homo sapiens, UniProt Q16790)
T4 construct: gene CA9; trans-membrane isoform
Source text: stopped-flow CO2 hydrase assay on hCA IX

[5] = target: T4, hCA IX; conditions: read-out: KI (μM)^a / hCA I
[6] = target: T1, hCA II; conditions: read-out: KI (μM)^a / hCA I
[7] = target: T2, hCA XII; conditions: read-out: KI (μM)^a / hCA I

Question: `O=C(/C=C\Nc1ccccc1C(=O)O)c1ccccc1` [5a] was tested. Which Ki [1] did it give?
Answer: The Ki was 39.4 µM.

Question: And the Ki [2]?
Answer: Its Ki is 6.4 µM.

Question: And the Ki [3]?
Answer: The Ki was > 100 µM.

Question: And the Ki [4]?
Answer: The Ki was 10.6 µM.

Question: How did the Ki [1] turn out when `O=C(/C=C\Nc1ccccc1C(=O)O)c1ccc(F)cc1` [5b] was run?
Answer: Its Ki is 24.3 µM.

Question: What about the Ki [2] of the same compound?
Answer: The Ki was 4.3 µM.

Question: What about the Ki [3] of the same compound?
Answer: The Ki was > 100 µM.

Question: And the Ki [4]?
Answer: Its Ki is 13.2 µM.

Question: With `O=C(/C=C\Nc1ccccc1C(=O)O)c1ccc(Cl)cc1` [5c] as the compound, how does the Ki [1] read?
Answer: The Ki was 32.7 µM.

Question: What about the Ki [2] of the same compound?
Answer: The Ki was 12.5 µM.

Question: What about the Ki [3] of the same compound?
Answer: The Ki was > 100 µM.

Question: And the Ki [4]?
Answer: Its Ki is 17.7 µM.

Question: Which results are given for `O=C(/C=C\Nc1ccccc1C(=O)O)c1ccc([N+](=O)[O-])cc1` [5d]?
Answer: Ki [1]: 26.9 µM; Ki [2]: 7.8 µM; Ki [3]: > 100 µM; Ki [4]: 14.1 µM

Question: With `O=C(/C=C\Nc1ccccc1C(=O)O)c1ccc2ccccc2c1` [5e] as the compound, how does the Ki [1] read?
Answer: The Ki was 49 µM.

Question: And the Ki [2]?
Answer: The Ki was 15.7 µM.

Question: And the Ki [3]?
Answer: Its Ki is > 100 µM.

Question: What about the Ki [4] of the same compound?
Answer: Its Ki is 19.3 µM.

Question: Which results are given for `O=C(O)c1cccc(NC=CC(=O)c2ccccc2)c1` [5f]?
Answer: Ki [1]: 72.8 µM; Ki [2]: 9.5 µM; Ki [3]: > 100 µM; Ki [4]: 15.9 µM

Question: Which results are given for `O=C(O)c1cccc(NC=CC(=O)c2ccc(F)cc2)c1` [5g]?
Answer: Ki [1]: 68.2 µM; Ki [2]: 10.3 µM; Ki [3]: > 100 µM; Ki [4]: 9.6 µM

Question: What does the source list for `O=C(O)c1cccc(NC=CC(=O)c2ccc(Cl)cc2)c1` [5h]?
Answer: Ki [1]: 77.1 µM; Ki [2]: 8.6 µM; Ki [3]: > 100 µM; Ki [4]: 19.2 µM

Question: What does the source list for `O=C(O)c1cccc(NC=CC(=O)c2ccc(Br)cc2)c1` [5i]?
Answer: Ki [1]: 81.4 µM; Ki [2]: 13.9 µM; Ki [3]: > 100 µM; Ki [4]: 32.5 µM

Question: Which results are given for `O=C(O)c1cccc(NC=CC(=O)c2ccc([N+](=O)[O-])cc2)c1` [5j]?
Answer: Ki [1]: 80.7 µM; Ki [2]: 8.9 µM; Ki [3]: > 100 µM; Ki [4]: 24.7 µM

Question: Which results are given for `O=C(O)c1cccc(NC=CC(=O)c2ccc3ccccc3c2)c1` [5k]?
Answer: Ki [1]: 92.3 µM; Ki [2]: 9.7 µM; Ki [3]: > 100 µM; Ki [4]: 11.4 µM

Question: `O=C(O)c1ccc(NC=CC(=O)c2ccccc2)cc1` [5l] was tested. Which Ki [1] did it give?
Answer: The Ki was 9.8 µM.

Question: What about the Ki [2] of the same compound?
Answer: Its Ki is 0.97 µM.

Question: And the Ki [3]?
Answer: The Ki was 75.3 µM.

Question: And the Ki [4]?
Answer: Its Ki is 1.2 µM.

Question: With `O=C(O)c1ccc(NC=CC(=O)c2ccc(F)cc2)cc1` [5m] as the compound, how does the Ki [1] read?
Answer: Its Ki is 8.7 µM.

Question: What about the Ki [2] of the same compound?
Answer: Its Ki is 1.1 µM.

Question: What about the Ki [3] of the same compound?
Answer: The Ki was 68.8 µM.

Question: And the Ki [4]?
Answer: The Ki was 0.92 µM.

Question: `O=C(O)c1ccc(NC=CC(=O)c2ccc(Cl)cc2)cc1` [5n] was tested. Which Ki [1] did it give?
Answer: The Ki was 13.5 µM.

Question: And the Ki [2]?
Answer: Its Ki is 4.6 µM.

Question: And the Ki [3]?
Answer: Its Ki is 81.5 µM.

Question: What about the Ki [4] of the same compound?
Answer: The Ki was 3.4 µM.

Question: `O=C(O)c1ccc(NC=CC(=O)c2ccc(Br)cc2)cc1` [5o] was tested. Which Ki [1] did it give?
Answer: The Ki was 15.3 µM.

Question: What about the Ki [2] of the same compound?
Answer: The Ki was 6.2 µM.

Question: What about the Ki [3] of the same compound?
Answer: The Ki was > 100 µM.

Question: And the Ki [4]?
Answer: Its Ki is 5.6 µM.

Question: Which Ki [1] does the source give for `O=C(O)c1ccc(NC=CC(=O)c2ccc([N+](=O)[O-])cc2)cc1` [5p] here?
Answer: Its Ki is 12.6 µM.

Question: And the Ki [2]?
Answer: The Ki was 0.85 µM.

Question: And the Ki [3]?
Answer: Its Ki is 95.6 µM.

Question: What about the Ki [4] of the same compound?
Answer: Its Ki is 4.1 µM.

Question: How did the Ki [1] turn out when `O=C(O)c1ccc(NC=CC(=O)c2ccc3ccccc3c2)cc1` [5q] was run?
Answer: The Ki was 7.4 µM.

Question: What about the Ki [2] of the same compound?
Answer: Its Ki is 1.5 µM.

Question: What about the Ki [3] of the same compound?
Answer: The Ki was 79.4 µM.

Question: And the Ki [4]?
Answer: The Ki was 0.76 µM.

Question: Which results are given for `O=C(O)c1cccc(NCCC(=O)c2ccccc2)c1` [7a, 3/4-((3-oxo-3-phenylpropyl)amino)benzoic acids 7a–b]?
Answer: Ki [1]: 64.3 µM; Ki [2]: 7.4 µM; Ki [3]: > 100 µM; Ki [4]: 23.7 µM

Question: How did the Ki [1] turn out when `O=C(O)c1ccc(NCCC(=O)c2ccccc2)cc1` [7b, 3/4-((3-oxo-3-phenylpropyl)amino)benzoic acids 7a–b] was run?
Answer: The Ki was 16.7 µM.

Question: What about the Ki [2] of the same compound?
Answer: The Ki was 9.1 µM.

Question: And the Ki [3]?
Answer: The Ki was 63.8 µM.

Question: And the Ki [4]?
Answer: The Ki was 8.3 µM.

Question: What does the source list for `O=C(O)CNC(=O)c1ccc(NC=CC(=O)c2ccccc2)cc1` [12a]?
Answer: Ki [5]: > 100 µM; Ki [6]: > 100 µM; Ki [3]: > 100 µM; Ki [7]: > 100 µM

Question: How did the Ki [5] turn out when `O=C(O)CNC(=O)c1ccc(N/C=C/C(=O)c2ccc(Br)cc2)cc1` [12b] was run?
Answer: Its Ki is > 100 µM.

Question: And the Ki [6]?
Answer: Its Ki is > 100 µM.

Question: What about the Ki [3] of the same compound?
Answer: Its Ki is > 100 µM.

Question: What about the Ki [7] of the same compound?
Answer: Its Ki is > 100 µM.

Question: Which results are given for `O=C(O)CNC(=O)c1ccc(N/C=C/C(=O)c2ccc3ccccc3c2)cc1` [12c]?
Answer: Ki [5]: > 100 µM; Ki [6]: > 100 µM; Ki [3]: > 100 µM; Ki [7]: > 100 µM
